Patent publication US12433863B2, “Pharmaceutical compositions and uses directed to lysosomal storage disorders” (INTRABIO LIMITED, priority 2016, dated 2025)

Test system: Hexb^−/− mouse (Sandhoff disease model)
Assay: Sandhoff disease mouse model (lifespan, bar crossing test, step cycle)
Assay type: in vivo
Method: This study made use of a mouse model of Sandhoff disease, the Hexb^−/− mouse, as described in Jeyakumar et al. (Jeyakumar, M. et al. (1999) Proc. Natl. Acad. Sci. USA 96: 6388-6393).
Wild-type (Hexb^+/+) mice were used as controls.
In FIG. 7A, acetyl-leucine-treated mice were treated with 0.1 g/kg acetyl-leucine from 3 weeks of age. The asterisks (*) indicates a p-value of <0.05 vs untreated Sandhoff mice. Data is average of n=6 mice per group. Without treatment, the median survival time of Sandhoff mice was 112 days. Treatment with acetyl-leucine (0.1 g/kg body weight since 3 weeks of age) increased the median lifespan to 120 days.
The bar crossing test is a method for assessing motor function in mice in which the mouse is placed hanging from the centre of a horizontal bar by its front limbs. A wild-type mouse with normal motor function will be able to engage its hind limbs and thereby move to one of the platforms at either end of the bar, and in doing so complete the test.
An untreated Sandhoff mouse is able to complete the test up until around 11 weeks of age. After this point motor function and hind-limb mobility/engagement have deteriorated to the point to which the mouse cannot complete the test, and will drop from the bar onto the padded surface below.
Step cycle is the length of time taken during locomotion by a limb from the time it leaves the ground until it leaves the ground on the next occasion.
Step cycle time was assessed at 12 weeks of age in untreated and acetyl-leucine treated Sandhoff model mice. Acetyl-leucine treatment constituted 0.1 g/kg body weight acetyl-leucine from 3 weeks of age.

CC(=O)NC(CC(C)C)C(=O)O (racemic) [acetyl-DL-leucine] was tested. Which “Average step cycle time” value (Sandhoff mice, 12 weeks of age, 0.1 g/kg from 3 weeks, p<0.001 vs untreated) did it give?
The value was “significantly faster average step cycle times”.

What about the “Hind step cycle time” value (Sandhoff mice, 12 weeks of age, 0.1 g/kg from 3 weeks, p<0.01 vs untreated) of the same molecule?
Its value is “significantly faster hind step cycle times”.

What about the “Front step cycle time” value (Sandhoff mice, 12 weeks of age, 0.1 g/kg from 3 weeks, p<0.05 vs untreated) of the same molecule?
The value was “significantly faster front step cycle times”.

What about the “Motor function assessed via the bar-crossing test” value (Sandhoff mouse model, 0.1 g/kg body weight from 3 weeks of age) of the same molecule?
The value was “improved motor function and hind-limb mobility/engagement”.

What about the “Lifespan versus untreated Sandhoff mice” value (Sandhoff mouse, 0.1 g/kg from 3 weeks of age, p<0.05) of the same molecule?
The value was “statistically significant increase in the lifespan”.
